Laboratory results from the supplement of paper PMC10290057.
Several values for one entry are separate records, joined by “and”; a condition that tells them apart may be missing. Identical values can stand only once. Counter-ions that a name gives are not always drawn.

Assays:
HCT116 [1] = experiment: AC50 cell viability (CellTiter-Glo); higher = less potent; conditions: 48 h
HCT116 [2] = experiment: efficacy (fitted maximal change in viability relative to DMSO control); higher = less cytotoxic (negative = loss of viability); conditions: 48 h
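Wherever AC50 cell viability (CellTiter-Glo) is given: HCT116 colorectal carcinoma cells screened at five concentrations per compound, luminescent viability scaled between DMSO wells and empty wells on each plate, curves fitted per compound.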
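Wherever efficacy (fitted maximal change in viability relative to DMSO control) is given: Luminescence-based viability readout, five doses per compound, normalized against on-plate DMSO and empty-well controls, followed by dose-response curve fitting for every drug.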

| SMILES | AC50 cell viability (HCT116 [1]) | efficacy (HCT116 [2]) |
| --- | --- | --- |
| CC1=CC=C2\N=C/3N(CC[C@@]3(O)C(=O)C2=C1)C4=CC=CC=C4 [(-)-Blebbistatin] | 0.132 µM | -35.7% |
| COc1ccc(CCN(C)CCCOc2ccc([S+](=O)([O-])c3c(C(C)C)c4ccccc4n3C)cc2)cc1OC | 8.33 µM | -91.8% |
| CC(C)n1c(/C=C/[C@H](O)C[C@H](O)CC(=O)O)c(-c2ccc(F)cc2)c2ccccc21 [Fluvastatin] | 9.34 µM | -71.8% |
| Cc1c(C)c2c(c(C)c1O)CCC(C)(COc1ccc(CC3SC(=O)NC3=O)cc1)O2 (centres undefined) [Troglitazone] | 18.6 µM | -55.1% |
| CN[S+]([O-])(=O)NC1=NC=CC(=C1F)CC/2=C(C)/C3=CC=C(OC4=NC=CC=N4)C=C3OC2=O | 1.66 µM | -43.7% |
| CCC(=O)Nc1cccc(Oc2nc(Nc3ccc(N4CCN(C)CC4)cc3OC)ncc2Cl)c1 [WZ-4003] | 6.61 µM | -65.7% |
| Cn1cnc([N+](=O)[O-])c1Sc1ncnc2nc[nH]c12 [Azathioprine] | 2.63 µM | -83.7% |
| CC(C)(O)c1cc2nc(-c3cnc(N)nc3)nc(N3CCOCC3)c2s1 [GNE-493] | 0.833 µM | -55.2% |
| O=C1CSC(=O)N1C(CCc1ccncc1)COc1ccc(-c2cccc([N+](=O)[O-])c2)cc1 (centres undefined) | 2.63 µM | -32.9% |
| CN1CCCN(CC1)C2=CC=C3C(=O)\C(=C/4SC5=C(C=CC=C5)N4C3=N2)C(=O)NCC6=CN=C(C)C=N6 [CX-5461] | 1.35 µM | -49.8% |
| O=[S+]([O-])(Nc1ccc(-c2cccnc2)c2cccnc12)c1cccc(C(F)(F)F)c1 [Compound 22d] | 4.17 µM | -73.3% |
| CCCCCCOC(=O)/N=C(/N)c1ccc(NCc2nc3cc(C(=O)N(CCC(=O)OCC)c4ccccn4)ccc3n2C)cc1 [BIBR-1048] | 18.6 µM | -59.4% |
| Cc1cn(-c2cc(NC(=O)c3ccc(C)c(Nc4nccc(-c5cccnc5)n4)c3)cc(C(F)(F)F)c2)cn1 [Nilotinib] | 1.66 µM | -46.8% |
| Oc1cc(O)cc(/C=C/c2ccc(O)c(O)c2)c1 [Piceatannol] | 26.3 µM | -69% |
| CC[S+](=O)([O-])c1cccc(-c2cc(C(=O)NC3CCN(C)CC3)c(C)c3[nH]c4ncc(C)cc4c23)c1 [TAK-901] | 0.417 µM | -76.3% |
| CC(C)c1cc(C(C)C)c(CC(=O)N[S+](=O)([O-])Oc2c(C(C)C)cccc2C(C)C)c(C(C)C)c1 [Avasimibe] | 14.8 µM | -82.3% |
| C=CC(=O)Nc1ccc2ncnc(Nc3cccc(Br)c3)c2c1 | 13.2 µM | -86.8% |
| CC(=O)c1cnc2ccc(-c3cc(Cl)c(O)c(Cl)c3)nc2c1N[C@H]1CC[C@H](CN(C)C)CC1 [OTS-167] | 0.0539 µM | -70.5% |
| CCCCOC(=O)N[S+](=O)([O-])c1sc(CC(C)C)cc1-c1ccc(Cn2ccnc2)cc1 [M-024] | 18.6 µM | -84.4% |

| SMILES | AC50 cell viability (HCT116 [1]) | efficacy (HCT116 [2]) |
| --- | --- | --- |
| Cc1[nH]c(/C=C2\C(=O)Nc3ccc([S+](=O)([O-])N(C)c4cccc(Cl)c4)cc32)c(C)c1C(=O)N1CCN(C)CC1 [SU-MI-2] | 14.8 µM | -113% |
| COc1cc(N2CCC(N3CCN(C)CC3)CC2)ccc1Nc1ncc(Cl)c(Nc2ccccc2[S+](=O)([O-])C(C)C)n1 [TAE-684] | 1.18 µM | -110% |
| COc1cccc2c1C(=O)c1c(O)c3c(c(O)c1C2=O)C[C@@](O)(C(=O)CO)C[C@@H]3O[C@H]1C[C@H](N)[C@H](O[C@H]2CCCCO2)[C@H](C)O1 [Pirarubicin] | 0.934 µM and 0.468 µM | -90.5% and -67.3% |
| C[C@@]12O[C@@H](C[C@]1(O)CO)n1c3ccccc3c3c4c(c5c6ccccc6n2c5c31)CNC4=O [Lestaurtinib] | 1.05 µM | -63.8% |
| CC(=O)NC(C)c1ccc(Oc2ccc(OC(C)C)cc2)cc1 (centres undefined) [ACC1 BMS] | 17.1 µM | -47.8% |
| C[C@@H](Oc1cc(-c2cnn(C3CCNCC3)c2)cnc1N)c1c(Cl)ccc(F)c1Cl [Crizotinib] | 4.17 µM | -100% |
| CCn1nnc2c(N3CCOCC3)nc(-c3ccc(NC(=O)Nc4ccc(C(=O)N5CCN(C)CC5)cc4)cc3)nc21 [PKI-402] | 0.118 µM | -64.4% |
| CC(C)(C)C1=CC(=C(NC(=O)C/2=C/NC3=C(C=CC=C3)C2=O)C=C1O)C(C)(C)C [Ivacaftor] | 18.6 µM | -108% |
| CCN1C(=O)N\2CC3=CC(=CC(=C3[C@@H](C)\C=C2C14CCN(CC4)CC5=CC(=CC(=C5)C)C)OC)OC | 23.5 µM | -91.8% |
| CC1=NN=C(C[C@@H]2\C=C(C3=CC=C(Cl)C=C3)/C4=CC=CC=C4[N]5C(=NN=C25)C)O1 [BAY-356] | 0.934 µM | -72.7% |
| CC(C)c1ccc(Cn2ccc3c4c(N)nc(NC5CC5)nc4ccc32)cc1 | 0.332 µM | -102% |
| COC(=O)Nc1nc2cc([S+]([O-])c3ccccc3)ccc2[nH]1 (centres undefined) [Oxfendazole] | 6.61 µM | -47.9% |
| Cc1ncc(NC(=O)c2cccc(C(F)(F)F)c2)cc1-c1cnc(OC2CCOCC2)c(N2CCOCC2)c1 [RAF-709] | 0.525 µM | -84.5% |
| Cc1cnc(Nc2ccc(CN3CCOCC3)cc2)nc1Nc1cccc([S+](=O)([O-])NC(C)(C)C)c1 [TG-46] | 2.63 µM | -97.9% |
| CN[C@H]1CC[C@@H](c2ccc(Cl)c(Cl)c2)c2ccccc21 [Sertraline hydrochloride] | 20.9 µM | -98.8% |
| C=C1C(=O)OC2/C=C(/C)CC/C=C(/C)CCC12 (centres undefined) [Costunolide] | 20.9 µM | -86.2% |
| C=CC(=O)N1CCC(CNc2ncnc(N)c2-c2ccc(Oc3ccccc3)cc2)CC1 [Evobrutinib] | 4.68 µM | -43.5% |
| CC(=O)Oc1ccccc1C(=O)Nc1ncc([N+](=O)[O-])s1 [Nitazoxanide] | 23.5 µM | -80.3% |
| CCN1CCN(Cc2ccc(NC(=O)c3ccc(C)c(NC(=O)c4cncc(-c5cccs5)c4)c3)cc2C(F)(F)F)CC1 [ALW-II-41-27] | 1.86 µM | -111% |

| SMILES | AC50 cell viability (HCT116 [1]) | efficacy (HCT116 [2]) |
| --- | --- | --- |
| CC1(C)CC[C@@]2(CC[C@]3(C)[C@@H]([C@@H]2C1)C(=O)\C=C\4[C@@]3(C)CC[C@H]5C(C)(C)C(=O)\C(=C/[C@]45C)C#N)NC(=O)C(C)(F)F [Omaveloxolone] | 5.9 µM | -91.5% |
| CC1(C)C(N(O)C(=O)Nc2ccc(Cl)cc2)N(c2ccc(Cl)cc2)C(=O)N1CC(=O)N/N=C/C=C/c1ccc([N+](=O)[O-])o1 (centres undefined) [Eeyarestatin I] | 8.33 µM | -89.8% |
| CCC(C)SSc1ncc[nH]1 (centres undefined) [PX-12] | 18.6 µM | -88.8% |
| CC[C@@H]1[C@H](F)C(=O)N[C@@H]1COc1nccc2cc(C(N)=O)c(OC)cc12 | 13.2 µM | -66.9% |
| COC1=C(OC)C=C2C(=C1)C(=O)N(CCC[N]3C=CN=C3)\C4=C2\C(=O)C5=CC6=C(OCO6)C=C45 [Indimitecan hydrochloride (LMP-776)] | 5.9 µM | -63.4% |
| COC1=CC=CC2=C1C(=NC(=N2)C3=CC=CS3)NN4C(=O)\C=C(C)/C4=O [SPC-839] | 0.525 µM | -91.1% |
| Cc1c(N)nc([C@H](CC(N)=O)NC[C@@H](N)C(N)=O)nc1C(=O)N[C@H](C(=O)N[C@@H](C)[C@H](O)[C@@H](C)C(=O)N[C@@H](C(=O)NCCc1nc(-c2nc(C(=O)NCCC[S+](C)C)cs2)cs1)[C@@H](C)O)C(O[C@H]1O[C@H](CO)[C@H](O)[C@@H](O)[C@H]1O[C@H]1O[C@H](CO)[C@@H](O)[C@H](OC(N)=O)[C@@H]1O)c1c[nH]cn1 (some centres undefined) [Bleomycin sulfate] | 1.62 µM | -34.2% |
| FC(F)(F)C1=CC=C2C(SCCCCCO\C3=C\O\C(CN4CCOCC4)=C/C3=O)=CC=NC2=C1 | 18.6 µM | -67.7% |
| FC1=CC=C(C=C1)N2/C=C\C=C(C(=O)NC3=CC=C(OC4=C5C=C[NH]C5=NC=C4)C(=C3)F)/C2=O [BMS-2] | 18.6 µM | -37.8% |
| CCC(=O)N1CCOc2c(cc(-c3cc(OC)cc(OC)c3)cc2C(=O)N[C@H]2CCCN(C)C2)C1 [TPOP-146] | 20.9 µM | -79.1% |
| C[S+](=O)([O-])N1CCc2c(-c3cnc(N)nc3)nc(N3CCOCC3)nc21 | 0.661 µM | -56.8% |
| COCCCOc1ccnc(CS(=O)c2nc3ccccc3[n-]2)c1C.[Na+] (centres undefined) [Rabeprazole] | 16.6 µM | -43.4% |
| O=[N+]([O-])c1cnc(Sc2nnc(O)n2-c2ccc3c(c2)OCCO3)s1 [BI-78D3] | 11.8 µM | -94.7% |
| CCOC(=O)[C@@]1(CCCCCCOc2ccc(Cl)cc2)CO1 [Etomoxir] | 18.6 µM | -42.1% |
| N=C(N)c1ccc(OCCCCCOc2ccc(C(=N)N)cc2)cc1 [Pentamidine isethionate] | 20.9 µM | -54.5% |
| Cc1c[nH]c2ncnc(N3CCC(CN)(C(=O)Nc4cccc(OC(=O)N(C)C)c4)CC3)c12 [LX-7101] | 14.8 µM and 11.8 µM | -68.9% and -70.5% |
| CC(C)CNc1ccnc(NCc2csc(-c3ccccc3)n2)n1 [KHS-101] | 11.8 µM | -129% |
| Cc1ccc([N+](=O)[O-])cc1[S+](=O)([O-])N(C)/N=C/c1cnc2ccc(Br)cn12 [PIK-75] | 0.0525 µM | -60.8% |
| COc1cc(Nc2ncc(F)c(Nc3ccc4c(n3)N(COP(=O)(O)O)C(=O)C(C)(C)O4)n2)cc(OC)c1OC [Fostamatinib] | 18.6 µM | -70.2% |
